# Reference: the supplement of paper PMC10307832
# What was measured:
# Assay in all cases: relative viability (nuclei count vs DMSO), 5 days (fraction); higher = more cells survive
# Bortezomib = compound: CC(C)C[C@H](NC(=O)[C@H](Cc1ccccc1)NC(=O)c1cnccn1)B(O)O [Bortezomib]
# How it was run: (§1)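 Lung cancer cell lines were seeded into 1536-well plates, kept overnight at 37 °C and pinned with five library-drug doses (not always all listed) spaced by √10. After 5 days, nuclei were Hoechst-stained, imaged at 4× and counted with MetaXpress. Viability is treated-well nuclei over vehicle-well nuclei, taken as a median across plates. Plates needed control CV below 25% and at least one doubling.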
# [1] = compound: CC1=CC(=NN1)NC2=CC(=NC(=N2)/C=C/C3=CC=CC=C3)N4CCN(CC4)C
# How it was run: as §1
# Obatoclax = compound: COC1=CC(c2cc3ccccc3[nH]2)=N/C1=C\c1[nH]c(C)cc1C [Obatoclax]
# How it was run: as §1
Cell Line,relative viability (Bortezomib; 0.0002 µM),relative viability (Bortezomib; 0.000632 µM),relative viability (Bortezomib; 0.002 µM),"relative viability (Bortezomib; 0.002 µM, anchor plate)",relative viability (Bortezomib; 0.006325 µM),relative viability (Bortezomib; 0.02 µM),relative viability ([1]; 0.08 µM),relative viability ([1]; 0.253 µM),relative viability ([1]; 0.8 µM),relative viability ([1]; 2.53 µM),relative viability ([1]; 8 µM),relative viability (Obatoclax; 0.01 µM),relative viability (Obatoclax; 0.03162 µM),relative viability (Obatoclax; 0.1 µM),relative viability (Obatoclax; 0.3162 µM),relative viability (Obatoclax; 1 µM)
201T,0.98,0.953,0.959,1.09,0.854,0.351,1.02,1.06,0.928,0.892,0.354,0.965,0.909,0.95,1.02,1.05
A549,0.914,0.981,0.939,–,0.0802,0.0522,0.909,1.04,0.92,0.29,0.0371,0.987,0.942,0.92,0.922,0.575
A-427,0.841,0.905,1.05,0.998,0.233,0.169,1.05,0.908,0.942,0.286,0.172,0.968,0.972,0.86,0.954,0.719
ABC-1,0.779,0.566,0.271,0.321,0.216,0.242,0.835,0.888,1.16,0.341,0.227,1.05,0.971,0.753,0.828,0.448
BEN,0.91,0.991,0.954,0.843,0.704,0.274,0.921,0.974,0.998,0.618,0.224,1.02,0.821,0.727,0.922,0.953
CAL-12T,0.93,0.971,0.957,1.03,0.49,0.155,0.977,0.946,0.928,0.339,0.187,0.995,0.955,1,0.483,0.328
COR-L23,0.97,0.948,0.964,0.971,0.0694,0.071,1.03,1.1,0.976,0.237,0.116,1.01,1.07,0.945,0.375,0.27
COR-L 105,0.855,0.936,0.797,0.931,0.292,0.314,0.848,1,0.891,0.301,0.27,0.884,1.08,0.992,0.69,0.436
Calu-6,0.998,0.965,0.974,0.961,0.118,0.0868,0.967,0.991,0.889,0.236,0.141,1,0.994,0.963,0.943,0.488
ChaGo-K-1,0.993,0.814,1.01,1.08,0.594,0.213,0.953,1.01,0.976,0.647,0.289,0.997,0.829,1.01,0.931,1.06
EBC-1,0.993,1,0.417,0.576,0.0892,0.0983,0.945,0.966,0.953,0.475,0.178,0.923,0.958,0.924,0.87,0.338
